Laboratory results as given in EP4015509A1, “ORGANOMETALLIC COMPOUNDS AND THEIR USE AS MULTIMODAL CONTRASTING MEDIA FOR IMAGING DIAGNOSIS” (Justesa Imagen S.A.U, priority 2020, dated 2022).
≈ marks a conversion by molar mass, not a printed value. Read-outs that look alike come from different tables or passages of the source.

Tests used:
[1] = Osmolality test with freezing point equipment; format: physicochemical; conditions: solutions at a concentration of 0.1 M
V79 fibroblast cultures = experiment: IC50 in vitro by cell viability measurement; format: cell-based
From the text: IC50 values were obtained by measuring cell viability in V79 fibroblast cultures as an alternative to animal experimentation. The values determined are summarized in the following table: Table 2: IC50 determination

[2] = molecular target: T1, Bovine Serum Albumin (BSA) (Bos taurus, UniProt P02769); experiment: Albumin affinity test by equilibrium dialysis (RED plate), ICP-MS analysis; conditions: compound 0.25 mM, BSA 0.6 mM, HEPES buffer pH 7.4, five hours, 37 °C
Protocol: (§1) The albumin affinity test was carried out by in-vitro studies using Thermo Scientific™ "Single-Use RED Plate with 8K MWCO Inserts" 96-well plate, Bovine Serum Albumin (BSA) and HEPES. The technique of the devices is based on the process of equilibrium dialysis. The tests were carried out in a HEPES buffer with a pH of 7.4. In a typical test, following the manufacturer's measurement procedure, 400 µL of a solution containing the compound to be studied and BSA in concentrations of 0.25 mM and 0.6 mM respectively, in HEPES buffer, are added to the sample well. Additionally, 600 µL of HEPES buffer is added in the buffer well. After shaking the system for five hours at 300 rpm at a constant temperature of 37 °C, the concentration of the compound in each well is analysed. This analysis was performed using an Agilent ICP-MS (7900 Series) and with these concentration data the percentage of affinity of the studied compounds was determined.

[3] = molecular target: T1, Bovine Serum Albumin (BSA); conditions: 5 h, 0.25 mM, pH 7.4
Protocol: as §1

mice [4] = experiment: MRI imaging in a 7T animal magnetic resonance equipment; format: in vivo
Protocol: The test was carried out in a 7T animal magnetic resonance equipment by administering the contrast medium containing the compound (8) at a dose of 0.1 mmol/Kg to mice.

mice [5] = experiment: PET/CT imaging in an animal PET/CT scanner; format: in vivo; conditions: 130 µCi solution, gallium 68-labelled compound, Figure 7

T1 sequence (P02769 25-607): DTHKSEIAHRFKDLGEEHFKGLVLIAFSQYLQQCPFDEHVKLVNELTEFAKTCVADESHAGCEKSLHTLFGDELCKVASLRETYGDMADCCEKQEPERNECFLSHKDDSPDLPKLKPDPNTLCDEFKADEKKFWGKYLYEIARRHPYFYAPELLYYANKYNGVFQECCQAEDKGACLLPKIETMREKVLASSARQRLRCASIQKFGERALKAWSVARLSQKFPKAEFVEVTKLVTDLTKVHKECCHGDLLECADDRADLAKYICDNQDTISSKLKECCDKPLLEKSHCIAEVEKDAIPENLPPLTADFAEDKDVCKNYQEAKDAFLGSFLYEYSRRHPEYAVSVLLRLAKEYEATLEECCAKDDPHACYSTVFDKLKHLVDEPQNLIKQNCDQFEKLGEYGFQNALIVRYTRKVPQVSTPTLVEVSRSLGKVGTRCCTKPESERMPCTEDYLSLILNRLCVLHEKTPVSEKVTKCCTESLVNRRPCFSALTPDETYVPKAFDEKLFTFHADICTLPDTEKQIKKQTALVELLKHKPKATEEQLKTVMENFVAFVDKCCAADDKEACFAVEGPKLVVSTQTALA

Compound	Osmolality (mOs/Kg) [1]	IC50 (V79 fibroblast cultures)	also measured
Europium {10-{2-{2-[2-(3-Carboxy-2,4,6-triiodophenylamino)-2-oxoethylamino] aminoethyl}-2-oxoethyl}-1,4,7,10-tetraaza-1-cyclodododecyl}-1,4,7-triacetate [Compound (16)]	148.12 mOs/Kg	>75 mg/mL	
Gallium {10-{2-{2-[2-(3-Carboxy-2,4,6-triiodophenylamino)-2-oxoethylamino] aminoethyl}-2-oxoethyl}-1,4,7,10-tetraaza-1-cyclodododecyl}-1,4,7-triacetate [Compound (14)]	150.42 mOs/Kg	10.12 mg/mL	
Gadolinium {10-{2-{2-[2-(3-Carboxy-2,4,6-triiodophenylamino)-2-oxoethylamino] aminoethyl}-2-oxoethyl}-1,4,7,10-tetraaza-1-cyclodododecyl}-1,4,7-triacetate [Compound (15)]	155.38 mOs/Kg	>75 mg/mL	
Gallium {10-{2-[2-(3-acetylamino-2,4,6-triiodophenylamino) aminoethyl]-2-oxoethyl}-1,4,7,10-tetraaza-1-cyclodecyl}-1,4,7-triacetate [Compound (7)]	123.43 mOs/Kg	8.64 mg/mL	organs differentiated in PET/CT images (mice [5]): heart, liver, kidneys and bladder are differentiated

The next lines start with results.

Osmolality (mOs/Kg) [1]	Compound	IC50 (V79 fibroblast cultures)	also measured
93.33 mOs/Kg	O=C([O-])CN1CCN(CC(=O)[O-])CCN([C@H](CO)[C@H](O)CO)CCN(CC(=O)[O-])CC1.[Gd+3] (racemic) [Gadobutrol, reference compound]	>75 mg/mL	Albumin affinity (%) [2]: Not detectable
258.47 mOs/Kg	CC(=O)Nc1c(I)cc(I)c(C(=O)O)c1I [Acetrizoic acid, reference compound]		IC50 (V79 fibroblast cultures; read-out: IC50): 4.04 mg/mL (≈ 7.25 mM); Albumin affinity (%) [3]: 39.16%
117.58 mOs/Kg	Gadolinium {10-{2-[2-(3-acetylamino-2,4,6-triiodophenylamino) aminoethyl]-2-oxoethyl}-1,4,7,10-tetraaza-1-cyclodecyl}-1,4,7-triacetate [Compound (8)]	>75 mg/mL	visualisation of the liver in MRI (mice [4]; additional study, MRI signal, figures 5 and 6): visualisation of the liver is possible; elimination route of the contrast medium (MRI) (mice [4]; mice, dose of 0.1 mmol/Kg, 7T MRI, figures 3 and 4): elimination via the kidneys
125.12 mOs/Kg	Europium {10-{2-[2-(3-acetylamino-2,4,6-triiodophenylamino) aminoethyl]-2-oxoethyl}-1,4,7,10-tetraaza-1-cyclodecyl}-1,4,7-trioacetate [Compound (9)]	>75 mg/mL	
